Measurements published in article PMC10079702, “Study of the inhibition effects on glutathione peroxidase immobilized on MNPs using a stopped-flow microfluidic system” (Analytical and Bioanalytical Chemistry, 2023).

Molecular target: T1, glutathione peroxidase (GPx) (Bos taurus, UniProt P00435)
T1 construct: gene GPX1; selenoprotein; EDC-coupled to magnetic nanoparticles for the assay
T1 sequence (P00435 1-205): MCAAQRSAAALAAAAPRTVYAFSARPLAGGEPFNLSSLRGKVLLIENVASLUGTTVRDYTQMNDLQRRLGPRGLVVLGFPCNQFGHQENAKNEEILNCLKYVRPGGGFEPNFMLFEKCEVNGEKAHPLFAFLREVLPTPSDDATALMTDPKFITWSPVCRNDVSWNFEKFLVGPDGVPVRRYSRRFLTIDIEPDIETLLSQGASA
Assay: stopped-flow microfluidic fluorimetry of competing homovanillic acid dimerization, Lineweaver-Burk
Format: biochemical
Settings: GPx immobilized on magnetic nanoparticles; GSH, H2O2, HVA; Tris-HCl 50 mmol/L pH 9, 30 °C; stated non-competitive; listed as at 1 µmol/L inhibitor; printed unit is not a concentration
Excerpt: stopped-flow microfluidic fluorimetry of competing homovanillic acid dimerization, Lineweaver-Burk on glutathione peroxidase (GPx)

CC(C)(C)OO [t-butyl hydroperoxide]
KI: 117.09 µmol/L/s
